{"source": "paper PMC5762315", "about": "“Inhibition of polo-like kinase 4 (PLK4): a new therapeutic option for rhabdoid tumors and pediatric medulloblastoma” (Oncotarget, 2017)", "assay_in_all_cases": "biochemical", "assay_type_in_all_cases": "biochemical", "key": {"various kinases [1]": {"target": "various kinases (Homo sapiens, UniProt O43781)", "sequence (O43781 whole entry)": "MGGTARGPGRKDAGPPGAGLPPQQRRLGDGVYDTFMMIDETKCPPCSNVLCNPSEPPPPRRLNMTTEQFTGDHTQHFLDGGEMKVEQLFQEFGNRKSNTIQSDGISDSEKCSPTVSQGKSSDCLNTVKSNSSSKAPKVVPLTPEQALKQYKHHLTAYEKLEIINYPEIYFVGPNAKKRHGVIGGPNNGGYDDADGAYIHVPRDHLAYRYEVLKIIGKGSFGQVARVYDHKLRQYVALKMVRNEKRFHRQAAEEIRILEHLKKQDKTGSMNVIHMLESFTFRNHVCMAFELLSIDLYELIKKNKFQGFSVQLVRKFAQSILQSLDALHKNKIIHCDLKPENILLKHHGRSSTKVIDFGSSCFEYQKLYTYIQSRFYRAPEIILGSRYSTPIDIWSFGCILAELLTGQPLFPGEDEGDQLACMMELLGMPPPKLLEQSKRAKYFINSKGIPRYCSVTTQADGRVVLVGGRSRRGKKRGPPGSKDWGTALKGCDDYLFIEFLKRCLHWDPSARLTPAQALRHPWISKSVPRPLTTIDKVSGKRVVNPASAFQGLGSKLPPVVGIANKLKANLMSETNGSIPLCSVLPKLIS", "details": "DYRK3"}, "various kinases [2]": {"target": "T1, various kinases (Homo sapiens, UniProt P51817)", "T1 sequence (P51817 1-358)": "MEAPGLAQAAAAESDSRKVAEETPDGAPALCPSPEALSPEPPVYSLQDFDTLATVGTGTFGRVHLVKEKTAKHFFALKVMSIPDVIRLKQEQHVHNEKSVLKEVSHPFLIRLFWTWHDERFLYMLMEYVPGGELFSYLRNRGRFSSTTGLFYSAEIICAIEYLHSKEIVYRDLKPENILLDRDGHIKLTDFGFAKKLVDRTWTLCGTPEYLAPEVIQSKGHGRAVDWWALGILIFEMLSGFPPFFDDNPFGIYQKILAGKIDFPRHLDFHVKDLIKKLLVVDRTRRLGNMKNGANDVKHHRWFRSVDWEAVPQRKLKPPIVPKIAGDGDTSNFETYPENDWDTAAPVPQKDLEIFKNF", "details": "kinase PRKX; ZLYTE"}, "various kinases [3]": {"target": "various kinases (Homo sapiens, UniProt P52564)", "sequence (P52564 whole entry)": "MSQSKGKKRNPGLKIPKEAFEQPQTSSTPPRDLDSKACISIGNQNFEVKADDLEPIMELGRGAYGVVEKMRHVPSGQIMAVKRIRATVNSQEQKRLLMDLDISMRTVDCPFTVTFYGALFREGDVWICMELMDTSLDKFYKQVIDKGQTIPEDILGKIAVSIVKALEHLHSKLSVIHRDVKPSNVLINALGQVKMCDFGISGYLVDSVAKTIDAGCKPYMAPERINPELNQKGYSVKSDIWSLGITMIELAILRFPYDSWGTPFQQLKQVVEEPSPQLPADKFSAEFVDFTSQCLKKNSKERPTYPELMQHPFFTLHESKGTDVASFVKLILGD", "details": "MAP2K6 (MKK6)"}, "various kinases [4]": {"target": "various kinases (Homo sapiens, UniProt P15056, V600E)", "details": "BRAF V599E"}, "various kinases [5]": {"target": "various kinases (Homo sapiens, UniProt O15530)", "sequence (O15530 whole entry)": "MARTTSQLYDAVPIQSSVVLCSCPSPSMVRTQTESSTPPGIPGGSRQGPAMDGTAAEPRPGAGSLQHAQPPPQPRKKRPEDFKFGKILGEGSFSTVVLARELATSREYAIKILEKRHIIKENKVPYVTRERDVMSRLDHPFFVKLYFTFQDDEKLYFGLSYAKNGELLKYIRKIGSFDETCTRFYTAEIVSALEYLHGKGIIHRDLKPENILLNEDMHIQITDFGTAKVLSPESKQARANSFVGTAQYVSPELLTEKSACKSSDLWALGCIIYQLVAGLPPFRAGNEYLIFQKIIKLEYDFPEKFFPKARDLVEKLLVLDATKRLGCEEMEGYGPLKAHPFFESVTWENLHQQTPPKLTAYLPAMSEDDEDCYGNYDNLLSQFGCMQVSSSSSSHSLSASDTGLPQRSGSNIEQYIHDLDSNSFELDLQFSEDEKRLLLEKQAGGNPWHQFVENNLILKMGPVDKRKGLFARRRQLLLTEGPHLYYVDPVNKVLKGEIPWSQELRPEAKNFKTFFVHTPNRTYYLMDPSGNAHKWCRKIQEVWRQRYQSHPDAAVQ"}, "various kinases [6]": {"target": "various kinases (Homo sapiens, UniProt Q5VT25)", "details": "CDC42 BPA (MRCKA)"}, "various kinases [7]": {"target": "various kinases (Homo sapiens, UniProt Q9UBS0)", "sequence (Q9UBS0 whole entry)": "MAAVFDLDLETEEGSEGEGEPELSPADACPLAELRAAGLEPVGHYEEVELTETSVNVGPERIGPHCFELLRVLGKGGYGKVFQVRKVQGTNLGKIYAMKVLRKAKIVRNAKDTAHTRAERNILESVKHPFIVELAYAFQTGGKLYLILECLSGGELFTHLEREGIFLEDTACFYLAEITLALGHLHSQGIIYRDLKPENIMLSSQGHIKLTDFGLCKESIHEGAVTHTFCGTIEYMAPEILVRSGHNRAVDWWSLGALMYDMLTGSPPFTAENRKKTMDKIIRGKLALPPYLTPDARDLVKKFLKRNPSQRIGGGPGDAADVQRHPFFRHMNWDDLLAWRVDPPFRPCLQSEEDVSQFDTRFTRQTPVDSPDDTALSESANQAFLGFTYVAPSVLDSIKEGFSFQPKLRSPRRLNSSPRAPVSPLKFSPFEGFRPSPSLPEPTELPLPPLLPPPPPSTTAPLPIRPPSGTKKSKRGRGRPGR", "details": "kinase RPS6KB2 (p70S6Kb); ZLYTE"}, "various kinases [8]": {"target": "various kinases (Homo sapiens, UniProt O00506)", "sequence (O00506 whole entry)": "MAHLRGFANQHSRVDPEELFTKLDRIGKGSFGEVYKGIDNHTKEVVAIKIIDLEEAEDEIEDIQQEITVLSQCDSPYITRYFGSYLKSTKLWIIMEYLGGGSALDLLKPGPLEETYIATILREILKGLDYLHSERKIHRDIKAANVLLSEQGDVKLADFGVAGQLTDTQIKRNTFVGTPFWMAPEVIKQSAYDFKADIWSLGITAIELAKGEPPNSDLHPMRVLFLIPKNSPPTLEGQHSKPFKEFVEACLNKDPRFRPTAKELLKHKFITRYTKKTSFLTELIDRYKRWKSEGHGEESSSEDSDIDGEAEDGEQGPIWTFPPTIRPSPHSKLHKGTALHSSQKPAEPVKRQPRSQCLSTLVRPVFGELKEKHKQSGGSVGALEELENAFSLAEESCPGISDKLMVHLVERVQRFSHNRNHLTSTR", "details": "kinase STK25 (YSK1); ZLYTE"}, "various kinases [9]": {"target": "various kinases (Homo sapiens, UniProt Q9Y6E0)", "sequence (Q9Y6E0 whole entry)": "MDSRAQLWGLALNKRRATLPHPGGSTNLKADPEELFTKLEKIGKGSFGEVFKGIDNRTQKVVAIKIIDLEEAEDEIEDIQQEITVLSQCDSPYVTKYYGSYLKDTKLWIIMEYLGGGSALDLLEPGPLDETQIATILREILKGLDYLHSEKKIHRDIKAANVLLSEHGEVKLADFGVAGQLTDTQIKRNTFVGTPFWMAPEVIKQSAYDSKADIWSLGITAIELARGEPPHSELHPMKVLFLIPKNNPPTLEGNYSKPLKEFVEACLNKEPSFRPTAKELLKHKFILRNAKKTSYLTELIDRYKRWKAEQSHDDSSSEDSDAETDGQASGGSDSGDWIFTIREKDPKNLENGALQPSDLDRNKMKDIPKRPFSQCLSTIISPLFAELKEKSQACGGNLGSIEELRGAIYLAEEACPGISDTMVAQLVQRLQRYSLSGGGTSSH", "details": "kinase STK24 (MST3); ZLYTE"}, "various kinases [10]": {"target": "various kinases (Homo sapiens, UniProt P32298)", "details": "GRK4"}, "various kinases [11]": {"target": "various kinases (Homo sapiens, UniProt P21709)", "details": "EPHA1"}, "various kinases [12]": {"target": "various kinases (Homo sapiens, UniProt P49759)", "details": "CLK1"}, "various kinases [13]": {"target": "various kinases (Homo sapiens, UniProt Q16816)", "sequence (Q16816 whole entry)": "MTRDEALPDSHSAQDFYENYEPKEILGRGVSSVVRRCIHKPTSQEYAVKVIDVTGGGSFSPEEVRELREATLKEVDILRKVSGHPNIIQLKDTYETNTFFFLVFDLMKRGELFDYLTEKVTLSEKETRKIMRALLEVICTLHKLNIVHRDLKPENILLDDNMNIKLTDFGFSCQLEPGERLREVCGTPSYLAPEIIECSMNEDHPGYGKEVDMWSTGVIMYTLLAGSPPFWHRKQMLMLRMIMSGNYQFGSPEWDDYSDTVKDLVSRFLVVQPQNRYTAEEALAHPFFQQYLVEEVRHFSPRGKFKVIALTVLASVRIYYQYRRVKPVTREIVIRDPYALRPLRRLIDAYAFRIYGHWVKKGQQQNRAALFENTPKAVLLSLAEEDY", "details": "PHKG1"}, "various kinases [14]": {"target": "various kinases (Homo sapiens, UniProt P43250)", "details": "GRK6"}, "various kinases [15]": {"target": "various kinases (Homo sapiens, UniProt P00519, F317L)", "details": "ABL1 F317L"}, "various kinases [16]": {"target": "various kinases (Homo sapiens, UniProt Q8TDX7)", "sequence (Q8TDX7 whole entry)": "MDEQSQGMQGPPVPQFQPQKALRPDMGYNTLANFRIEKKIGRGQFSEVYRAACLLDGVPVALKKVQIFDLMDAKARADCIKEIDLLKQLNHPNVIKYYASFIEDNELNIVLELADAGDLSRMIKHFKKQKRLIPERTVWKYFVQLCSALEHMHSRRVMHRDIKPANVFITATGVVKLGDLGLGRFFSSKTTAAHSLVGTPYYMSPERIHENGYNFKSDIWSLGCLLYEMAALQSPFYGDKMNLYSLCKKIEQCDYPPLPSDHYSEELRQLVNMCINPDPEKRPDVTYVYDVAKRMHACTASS", "details": "NEK7"}, "various kinases [17]": {"target": "various kinases (Homo sapiens, UniProt Q8TDC3)", "details": "BRSK1 (SAD1)"}, "various kinases [18]": {"target": "various kinases (Homo sapiens, UniProt P06213)", "details": "INSR"}, "various kinases [19]": {"target": "various kinases (Homo sapiens, UniProt Q08881)", "sequence (Q08881 whole entry)": "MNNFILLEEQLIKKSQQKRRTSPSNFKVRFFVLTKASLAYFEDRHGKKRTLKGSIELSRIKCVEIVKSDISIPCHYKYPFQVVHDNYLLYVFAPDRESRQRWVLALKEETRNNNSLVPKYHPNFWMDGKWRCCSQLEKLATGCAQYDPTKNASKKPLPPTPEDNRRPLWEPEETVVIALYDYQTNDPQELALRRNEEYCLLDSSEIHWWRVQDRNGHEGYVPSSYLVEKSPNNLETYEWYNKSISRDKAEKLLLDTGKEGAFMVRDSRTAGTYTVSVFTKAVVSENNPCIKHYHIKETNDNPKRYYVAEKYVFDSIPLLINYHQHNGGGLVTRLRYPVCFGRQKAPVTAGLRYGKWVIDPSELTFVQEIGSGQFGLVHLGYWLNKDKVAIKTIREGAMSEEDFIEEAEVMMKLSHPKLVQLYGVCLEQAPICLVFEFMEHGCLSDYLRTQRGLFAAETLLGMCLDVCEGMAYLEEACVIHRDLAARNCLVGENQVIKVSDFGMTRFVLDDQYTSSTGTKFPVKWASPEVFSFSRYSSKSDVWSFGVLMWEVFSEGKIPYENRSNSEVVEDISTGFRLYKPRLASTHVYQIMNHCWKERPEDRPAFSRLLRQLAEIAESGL", "details": "ITK"}, "various kinases [20]": {"target": "various kinases (Homo sapiens, UniProt P53778)", "sequence (P53778 whole entry)": "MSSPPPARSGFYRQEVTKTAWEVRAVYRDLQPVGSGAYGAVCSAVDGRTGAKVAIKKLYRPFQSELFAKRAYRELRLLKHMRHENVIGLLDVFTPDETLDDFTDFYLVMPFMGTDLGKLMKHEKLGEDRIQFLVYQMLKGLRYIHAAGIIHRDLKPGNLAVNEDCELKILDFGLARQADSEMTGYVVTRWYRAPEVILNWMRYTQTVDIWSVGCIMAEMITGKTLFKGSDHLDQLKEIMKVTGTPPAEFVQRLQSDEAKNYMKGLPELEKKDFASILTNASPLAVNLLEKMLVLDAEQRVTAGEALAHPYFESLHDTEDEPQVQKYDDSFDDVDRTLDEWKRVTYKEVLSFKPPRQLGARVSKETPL", "details": "MAPK12 (p38 gamma)"}, "various kinases [21]": {"target": "T2, various kinases (Homo sapiens, UniProt Q06418)", "T2 sequence (Q06418 41-890)": "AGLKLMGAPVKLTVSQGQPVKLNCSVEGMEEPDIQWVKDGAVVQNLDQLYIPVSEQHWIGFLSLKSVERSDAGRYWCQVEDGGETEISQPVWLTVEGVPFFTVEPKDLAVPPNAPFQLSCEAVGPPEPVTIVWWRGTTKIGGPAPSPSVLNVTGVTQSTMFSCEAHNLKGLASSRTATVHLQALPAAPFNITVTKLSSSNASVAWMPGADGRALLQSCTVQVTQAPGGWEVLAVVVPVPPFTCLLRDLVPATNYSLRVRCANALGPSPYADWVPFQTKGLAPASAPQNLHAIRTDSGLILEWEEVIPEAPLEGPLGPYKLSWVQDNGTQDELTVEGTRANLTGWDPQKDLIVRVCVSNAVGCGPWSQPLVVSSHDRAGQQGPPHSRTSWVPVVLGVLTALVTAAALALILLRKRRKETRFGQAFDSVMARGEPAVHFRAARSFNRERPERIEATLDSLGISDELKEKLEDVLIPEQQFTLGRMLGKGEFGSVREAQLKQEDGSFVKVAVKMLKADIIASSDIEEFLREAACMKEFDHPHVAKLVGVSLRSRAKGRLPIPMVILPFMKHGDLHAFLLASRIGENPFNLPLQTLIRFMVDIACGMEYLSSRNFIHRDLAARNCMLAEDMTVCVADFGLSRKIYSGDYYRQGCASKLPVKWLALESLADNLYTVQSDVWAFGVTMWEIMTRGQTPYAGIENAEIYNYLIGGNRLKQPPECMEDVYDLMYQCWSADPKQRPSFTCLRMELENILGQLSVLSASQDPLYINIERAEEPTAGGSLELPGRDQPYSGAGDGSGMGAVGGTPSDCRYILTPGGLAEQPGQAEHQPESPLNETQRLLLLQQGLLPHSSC", "details": "kinase TYRO3 (RSE); ZLYTE"}, "various kinases [22]": {"target": "various kinases (Homo sapiens, UniProt P08581)", "details": "MET (cMet)"}, "various kinases [23]": {"target": "various kinases (Homo sapiens, UniProt Q9H2X6)", "details": "HIPK2"}, "various kinases [24]": {"target": "various kinases (Homo sapiens, UniProt Q8IY84)", "sequence (Q8IY84 whole entry)": "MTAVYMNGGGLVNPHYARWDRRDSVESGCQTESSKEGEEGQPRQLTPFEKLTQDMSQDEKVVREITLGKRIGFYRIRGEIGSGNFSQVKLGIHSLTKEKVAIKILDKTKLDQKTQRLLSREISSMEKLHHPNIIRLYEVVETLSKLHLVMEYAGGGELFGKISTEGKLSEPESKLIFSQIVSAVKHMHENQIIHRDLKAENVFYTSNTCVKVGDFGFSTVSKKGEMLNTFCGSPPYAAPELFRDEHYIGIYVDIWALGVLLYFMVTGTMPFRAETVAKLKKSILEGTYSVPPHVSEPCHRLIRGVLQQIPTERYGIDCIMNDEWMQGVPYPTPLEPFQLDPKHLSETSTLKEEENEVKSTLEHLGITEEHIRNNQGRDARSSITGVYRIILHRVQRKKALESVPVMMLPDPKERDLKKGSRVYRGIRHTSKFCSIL", "details": "NIM1K"}}, "note": "Several values for one entry are separate records, joined by “and”; a condition that tells them apart may be missing. Equal entries are not always repeated.", "data": [{"smiles": "COc1ccc2c(c1)[C@]1(C[C@H]1c1ccc3c(/C=C/c4ccc(CN5C[C@@H](C)O[C@@H](C)C5)cc4)n[nH]c3c1)C(=O)N2", "note": "[CFI-400945]", "values": [{"measurement": "% Inhibition", "setting": "various kinases [1]", "value": "9% and 5%"}, {"measurement": "% Inhibition Average", "setting": "various kinases [2]", "value": 5, "unit": "%"}, {"measurement": "% Inhibition Duplicate #1", "setting": "various kinases [2]", "value": 6, "unit": "%"}, {"measurement": "% Inhibition Duplicate #2", "setting": "various kinases [2]", "value": 4, "unit": "%"}, {"measurement": "% Inhibition", "setting": "various kinases [3]", "value": "4% and -2%"}, {"measurement": "% Inhibition", "setting": "various kinases [4]", "value": 12, "unit": "%"}, {"measurement": "% Inhibition", "setting": "various kinases [5]; PDK1", "value": "3% and 2%"}, {"measurement": "% Inhibition", "setting": "various kinases [5]; PDK1 Direct", "value": 6, "unit": "%"}, {"measurement": "% Inhibition", "setting": "various kinases [6]", "value": "3% and 10%"}, {"measurement": "% Inhibition Average", "setting": "various kinases [7]", "value": 5, "unit": "%"}, {"measurement": "% Inhibition Duplicate #1", "setting": "various kinases [7]", "value": 5, "unit": "%"}, {"measurement": "% Inhibition Duplicate #2", "setting": "various kinases [7]", "value": 4, "unit": "%"}, {"measurement": "% Inhibition Average", "setting": "various kinases [8]", "value": -3, "unit": "%"}, {"measurement": "% Inhibition Duplicate #1", "setting": "various kinases [8]", "value": 0, "unit": "%"}, {"measurement": "% Inhibition Duplicate #2", "setting": "various kinases [8]", "value": -6, "unit": "%"}, {"measurement": "% Inhibition Average", "setting": "various kinases [9]", "value": 7, "unit": "%"}, {"measurement": "% Inhibition Duplicate #1", "setting": "various kinases [9]", "value": 7, "unit": "%"}, {"measurement": "% Inhibition Duplicate #2", "setting": "various kinases [9]", "value": 7, "unit": "%"}, {"measurement": "% Inhibition", "setting": "various kinases [10]", "value": "1% and -1%"}, {"measurement": "% Inhibition", "setting": "various kinases [11]", "value": "20% and 26%"}, {"measurement": "% Inhibition", "setting": "various kinases [12]", "value": -1, "unit": "%"}, {"measurement": "% Inhibition", "setting": "various kinases [13]", "value": "10% and 7%"}, {"measurement": "% Inhibition", "setting": "various kinases [14]", "value": 5, "unit": "%"}, {"measurement": "% Inhibition", "setting": "various kinases [15]", "value": "13% and 16%"}, {"measurement": "% Inhibition", "setting": "various kinases [16]", "value": "0% and 6%"}, {"measurement": "% Inhibition", "setting": "various kinases [17]", "value": "13% and 7%"}, {"measurement": "% Inhibition", "setting": "various kinases [18]", "value": "4% and 10%"}, {"measurement": "% Inhibition", "setting": "various kinases [19]", "value": "56% and 53%"}, {"measurement": "IC50", "setting": "various kinases [19]", "value": 200, "unit": "nM"}, {"measurement": "% Inhibition", "setting": "various kinases [20]", "value": "-3% and -2%"}, {"measurement": "% Inhibition Average", "setting": "various kinases [21]", "value": 10, "unit": "%"}, {"measurement": "% Inhibition Duplicate #1", "setting": "various kinases [21]", "value": 10, "unit": "%"}, {"measurement": "% Inhibition Duplicate #2", "setting": "various kinases [21]", "value": 11, "unit": "%"}, {"measurement": "% Inhibition", "setting": "various kinases [22]", "value": "16% and 14%"}, {"measurement": "% Inhibition", "setting": "various kinases [23]", "value": "2% and 0%"}, {"measurement": "% Inhibition", "setting": "various kinases [24]", "value": "2% and 3%"}]}]}
